Values of other authors, collected in PubChem BioAssay AID1259409 (Chemical Carcinogenesis Research Information System (CCRIS), 2018).

Tested on: rodent chemically induced tumor inhibition, incidence and multiplicity
Test: CCRIS tumor inhibitor studies
Details: Route [Inhibitor]: ORAL, Species: RAT

CCCCCCOc1cc(C)c(O)c(C)c1C
tumour outcome (control, treated, inhibition, significance) (Carcinogen: 1,2-DIMETHYLBHYDRAZINE [540-73-8], Dose [Inhibitor]: 0.5% IN DIET FOR 32 WK BEGINNING 1 WK POST LAST CARCINOGEN DOSE (STUDY DURATION: 36 WK), Strain/Sex: F344/MALE, Target Tissue: Type of Lesion: COLON: ADENOMA OR CARCINOMA, Dose [Carcinogen]: 40 MG/KG BW 1X/WK FOR 4 WK (STUDY DURATION: 36 WK), Promoter: 2-AMINO-1-METHYL-6-PHENYLIMIDAZO[4,5-B]PYRIDINE [105650-23-5]): 20/21 (95%), 19/19 (100%), -5%, not significant | tumour outcome (control, treated, inhibition, significance) (Carcinogen: 2-AMINO-1-METHYL-6-PHENYL-1H-IMIDAZO[4,5-B]PYRID INE, 105650-23-5, Dose [Inhibitor]: 0, 0.5% IN THE DIET FOR 52 WK (STUDY DURATION: 52 WK), Strain/Sex: F344/FEMALE, Target Tissue: Type of Lesion: MAMMARY GLAND: ADENOCARCINOMA FIBROADENOMA, Dose [Carcinogen]: 0.02% IN THE DIET FOR 52 WK, Promoter: NONE USED): 2/20 (10%), 0/21 (0%), 100%, not significant | tumour outcome (control, treated, inhibition, significance) (Carcinogen: 2-AMINO-1-METHYL-6-PHENYL-1H-IMIDAZO[4,5-B]PYRID INE, 105650-23-5, Dose [Inhibitor]: 0, 0.5% IN THE DIET FOR 52 WK (STUDY DURATION: 52 WK), Strain/Sex: F344/FEMALE, Target Tissue: Type of Lesion: MAMMARY GLAND: ADENOCARCINOMA, Dose [Carcinogen]: 0.02% IN THE DIET FOR 52 WK, Promoter: NONE USED): 8/20 (40%), 1/21 (5%), 88%, p< 0.01 | tumour outcome (control, treated, inhibition, significance) (Carcinogen: 2-AMINO-1-METHYL-6-PHENYLIMIDAZO[4,5-B]PYRIDINE, 105650-23-5, Dose [Inhibitor]: 0, 0.5% IN DIET FOR 52 WK CONCURRENTLY WITH CARCINOGEN TREATMENT (STUDY DURATION: 52 WK), Strain/Sex: F344/FEMALE, Target Tissue: Type of Lesion: LARGE INTESTINE: ADENOMA OR CARCINOMA, Dose [Carcinogen]: 0.02% IN DIET FOR 52 WK, Promoter: NONE USED): 2/18 (11%), 0/21 (0%), 100%, not calculated | tumour outcome (control, treated, inhibition, significance) (Carcinogen: 2-AMINO-1-METHYL-6-PHENYLIMIDAZO[4,5-B]PYRIDINE, 105650-23-5, Dose [Inhibitor]: 0, 0.5% IN DIET FOR 52 WK CONCURRENTLY WITH CARCINOGEN TREATMENT (STUDY DURATION: 52 WK), Strain/Sex: F344/FEMALE, Target Tissue: Type of Lesion: MAMMARY GLAND: ADENOCARCINOMA, Dose [Carcinogen]: 0.02% IN DIET FOR 52 WK, Promoter: NONE USED): 8/20 (40%), 1/21 (5%), 88%, p<0.01 | tumour outcome (control, treated, inhibition, significance) (Carcinogen: DIETHYLNITROSAMINE, 55-18-5, N-METHYL-N-NITROSOUREA, 684-63-5, N-BUTYL-N-(4-HYDROXYBUTYL)NITROSAMINE, 3817-11-6, DIMETHY, Carcinogen: DIETHYLNITROSAMINE, 55-18-5, N-METHYL-N-NITROSOUREA, 684-63-5, N-BUTYL-N-(4-HYDROXYBUTYL)NITROSAMINE, 3817-11-6, DIMETHY, Dose [Inhibitor]: 0, 1% IN THE DIET FOR 30 D BEGINNING 1 D PRIOR TO CARCINOGEN TREATMENT (STUDY DURATION: 28 WK), Strain/Sex: F344/MALE, Target Tissue: Type of Lesion: SMALL INTESTINE: CARCINOMA, Dose [Carcinogen]: 100 MG/KG BW DEN ONCE FOLLOWED BY 20 MG/KG BW MNU 4 TIMES AND 0.05% BBN IN DRINKING WATER DURING FIRST 2 WK THEN 40 MG/K, Promoter: NONE USED): 7%, 14%, -100%, not significant | tumour outcome (control, treated, inhibition, significance) (Carcinogen: DIETHYLNITROSAMINE, 55-18-5, N-METHYL-N-NITROSOUREA, 684-93-5, N-BUTYL-N-(4-HYDROXYBUTYL)NITROSAMINE, 3817-11-6, DIMETHY, Carcinogen: DIETHYLNITROSAMINE, 55-18-5, N-METHYL-N-NITROSOUREA, 684-93-5, N-BUTYL-N-(4-HYDROXYBUTYL)NITROSAMINE, 3817-11-6, DIMETHY, Dose [Inhibitor]: 0, 1% IN THE DIET FOR 24 MO BEGINNING 1 DAY POST CARCINOGEN TREATMENT (STUDY DURATION: 28 WK), Strain/Sex: F344/MALE, Target Tissue: Type of Lesion: LARGE INTESTINE: CARCINOMA, Dose [Carcinogen]: 100 MG/KG BW DEN ONCE FOLLOWED BY 20 MG/KG BW MNU 4 TIMES AND 0.05% BBN IN DRINKING WATER DURING FIRST 2 WK THEN 40 MG/K, Promoter: NONE USED): 7%, 7%, 0%, not significant | tumour outcome (control, treated, inhibition, significance) (Carcinogen: DIETHYLNITROSAMINE, 55-18-5, N-METHYL-N-NITROSOUREA, 684-93-5, N-BUTYL-N-(4-HYDROXYBUTYL)NITROSAMINE, 3817-11-6, DIMETHY, Carcinogen: DIETHYLNITROSAMINE, 55-18-5, N-METHYL-N-NITROSOUREA, 684-93-5, N-BUTYL-N-(4-HYDROXYBUTYL)NITROSAMINE, 3817-11-6, DIMETHY, Dose [Inhibitor]: 0, 1% IN THE DIET FOR 24 WK BEGINNING 1 D POST CARCINOGEN TREATMENT (STUDY DURATION: 28 WK), Strain/Sex: F344/MALE, Target Tissue: Type of Lesion: URINARY BLADDER: PAPILLOMA, Dose [Carcinogen]: 100 MG/KG BW DEN ONCE FOLLOWED BY 20 MG/KG BW MNU 4 TIMES AND 0.05% BBN IN DRINKING WATER DURING FIRST 2 WK THEN 40 MG/K, Promoter: NONE USED): 7%, 0%, 100%, not significant | tumour outcome (control, treated, inhibition, significance) (Carcinogen: DIETHYLNITROSAMINE, 55-18-5, N-METHYL-N-NITROSOUREA, 684-93-5, N-BUTYL-N-(4-HYDROXYBUTYL)NITROSAMINE, 3817-11-6, DIMETHY, Carcinogen: DIETHYLNITROSAMINE, 55-18-5, N-METHYL-N-NITROSOUREA, 684-93-5, N-BUTYL-N-(4-HYDROXYBUTYL)NITROSAMINE, 3817-11-6, DIMETHY, Dose [Inhibitor]: 0, 1% IN THE DIET FOR 24 WK BEGINNING 1 DAY POST CARCINOGEN TREATMENT (STUDY DURATION: 28 WK), Strain/Sex: F344/MALE, Target Tissue: Type of Lesion: LARGE INTESTINE: ADENOMA, Dose [Carcinogen]: 100 MG/KG BW DEN ONCE FOLLOWED BY 20 MG/KG BW MNU 4 TIMES AND 0.05% BBN IN DRINKING WATER DURING FIRST 2 WK THEN 40 MG/K, Promoter: NONE USED): 27%, 0%, 100%, p<0.05
